Measured values published in ChEMBL document CHEMBL4732141, “Imidazopyridine-Based 5-HT Receptor Neutral Antagonists: Impact of N-Benzyl and N-Phenylsulfonyl Fragments on Different Receptor Conformational States” (J Med Chem, 2021).
Active and inactive are the calls of the source. The calls are words filed in the database; no cut-off is given here.

What was measured:
[1] = Stability in pH 1 buffer assessed as compound decomposition after 1 hr; format: physicochemical; conditions: pH 1, 1 h
[2] = Stability in deuterated dimethyl sulfoxide; format: physicochemical
[3] = target: 5-hydroxytryptamine receptor 6 (Homo sapiens, UniProt P50406); test: Binding affinity to 5HT6R (unknown origin)
Sequence of 5-hydroxytryptamine receptor 6 (P50406 whole entry): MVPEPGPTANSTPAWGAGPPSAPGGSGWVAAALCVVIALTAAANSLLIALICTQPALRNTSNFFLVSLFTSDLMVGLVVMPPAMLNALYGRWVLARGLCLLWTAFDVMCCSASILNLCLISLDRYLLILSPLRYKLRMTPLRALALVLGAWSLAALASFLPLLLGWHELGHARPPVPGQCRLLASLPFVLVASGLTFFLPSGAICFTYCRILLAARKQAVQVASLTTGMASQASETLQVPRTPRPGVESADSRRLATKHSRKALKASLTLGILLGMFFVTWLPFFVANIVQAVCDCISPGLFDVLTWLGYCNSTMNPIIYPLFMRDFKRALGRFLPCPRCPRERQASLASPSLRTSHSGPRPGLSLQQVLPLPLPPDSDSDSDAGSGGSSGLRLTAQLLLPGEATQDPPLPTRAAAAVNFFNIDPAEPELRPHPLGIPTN

[4] = Toxicity in mouse C8-D1A astrocytes assessed as reduction in cell viability at […] by MTT assay; format: cell-based; conditions: astrocyte, dose 0.25 µM
[5] = Effect on neurite growth in […] NG108-15 cells expressing GFP-tagged 5-HT6 receptor assessed as neurite length at 1 uM incubated for 24 hrs by epifluorescence microscopy (reference value: 37.20 +/- 1.53 micrometer); format: functional
[6] = Toxicity in mouse C8-D1A astrocytes assessed as reduction in cell viability by MTT assay; format: cell-based, Astrocyte
[7] = Neurotoxicity in human SH-SY5Y cells assessed as reduction in cell viability incubated for 24 hrs by MTT assay; format: toxicity, cell-based
[8] = Stability in pH 1 buffer assessed as compound decomposition after 24 hrs; format: physicochemical; conditions: pH 1, 24 h
[9] = target: 5-hydroxytryptamine receptor 2A (Homo sapiens, UniProt P28223); test: Displacement of […] from human 5HT2A expressed in HEK293 cell membranes incubated for 1 hr by micro-beta plate reader based analysis; parameters: species or system Cell membrane
Sequence of 5-hydroxytryptamine receptor 2A (P28223 whole entry): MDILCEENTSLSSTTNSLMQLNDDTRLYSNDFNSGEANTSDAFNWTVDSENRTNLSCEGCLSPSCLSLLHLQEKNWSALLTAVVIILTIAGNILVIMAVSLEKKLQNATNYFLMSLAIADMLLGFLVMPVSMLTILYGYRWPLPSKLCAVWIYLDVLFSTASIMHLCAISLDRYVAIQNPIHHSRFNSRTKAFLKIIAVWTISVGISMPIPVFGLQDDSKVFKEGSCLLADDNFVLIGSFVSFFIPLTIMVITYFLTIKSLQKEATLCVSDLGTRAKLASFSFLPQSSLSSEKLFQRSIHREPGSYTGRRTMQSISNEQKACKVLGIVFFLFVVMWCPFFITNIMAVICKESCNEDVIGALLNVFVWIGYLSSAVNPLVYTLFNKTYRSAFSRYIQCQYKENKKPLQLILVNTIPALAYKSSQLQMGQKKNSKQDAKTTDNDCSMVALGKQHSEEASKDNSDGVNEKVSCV

[10] = target: T1, 5-hydroxytryptamine receptor 1A (Homo sapiens, UniProt P08908); test: Displacement of […] from human 5HT1A expressed in HEK293 cell membranes incubated for 1 hr by micro-beta plate reader based analysis; parameters: species or system Cell membrane
T1 sequence (P08908 whole entry): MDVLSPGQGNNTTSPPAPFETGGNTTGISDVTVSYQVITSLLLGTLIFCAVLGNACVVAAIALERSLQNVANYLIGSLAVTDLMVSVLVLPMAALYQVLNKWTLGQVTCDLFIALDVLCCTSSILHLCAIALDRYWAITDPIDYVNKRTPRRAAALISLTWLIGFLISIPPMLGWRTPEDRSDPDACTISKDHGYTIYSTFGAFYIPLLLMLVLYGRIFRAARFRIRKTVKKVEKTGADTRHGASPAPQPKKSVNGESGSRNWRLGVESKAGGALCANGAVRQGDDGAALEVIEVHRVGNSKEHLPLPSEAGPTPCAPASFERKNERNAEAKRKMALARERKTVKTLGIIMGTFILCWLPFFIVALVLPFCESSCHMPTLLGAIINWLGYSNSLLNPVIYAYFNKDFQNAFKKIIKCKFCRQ

[11] = target: beta-1 adrenergic receptor (Homo sapiens, UniProt P08588); test: Inhibition of human beta1 adrenergic receptor at 1 uM relative to control
Sequence of beta-1 adrenergic receptor (P08588 whole entry): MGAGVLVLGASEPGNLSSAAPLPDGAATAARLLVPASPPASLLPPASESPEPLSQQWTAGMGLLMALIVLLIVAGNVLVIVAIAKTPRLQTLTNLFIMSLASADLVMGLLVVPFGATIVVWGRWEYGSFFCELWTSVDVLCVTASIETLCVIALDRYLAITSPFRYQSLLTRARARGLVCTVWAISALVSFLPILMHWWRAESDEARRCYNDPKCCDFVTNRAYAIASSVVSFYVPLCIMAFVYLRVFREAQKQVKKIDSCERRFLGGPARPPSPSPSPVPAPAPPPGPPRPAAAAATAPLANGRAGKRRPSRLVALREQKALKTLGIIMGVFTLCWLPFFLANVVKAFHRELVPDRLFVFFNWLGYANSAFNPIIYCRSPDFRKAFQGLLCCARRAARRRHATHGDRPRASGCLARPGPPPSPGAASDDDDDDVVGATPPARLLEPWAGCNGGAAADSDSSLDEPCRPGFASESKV

[12] = target: histamine H1 receptor (HRH1) (Homo sapiens, UniProt P35367); test: Inhibition of human HRH1 at 1 uM relative to control
Sequence of histamine H1 receptor (HRH1) (P35367 whole entry): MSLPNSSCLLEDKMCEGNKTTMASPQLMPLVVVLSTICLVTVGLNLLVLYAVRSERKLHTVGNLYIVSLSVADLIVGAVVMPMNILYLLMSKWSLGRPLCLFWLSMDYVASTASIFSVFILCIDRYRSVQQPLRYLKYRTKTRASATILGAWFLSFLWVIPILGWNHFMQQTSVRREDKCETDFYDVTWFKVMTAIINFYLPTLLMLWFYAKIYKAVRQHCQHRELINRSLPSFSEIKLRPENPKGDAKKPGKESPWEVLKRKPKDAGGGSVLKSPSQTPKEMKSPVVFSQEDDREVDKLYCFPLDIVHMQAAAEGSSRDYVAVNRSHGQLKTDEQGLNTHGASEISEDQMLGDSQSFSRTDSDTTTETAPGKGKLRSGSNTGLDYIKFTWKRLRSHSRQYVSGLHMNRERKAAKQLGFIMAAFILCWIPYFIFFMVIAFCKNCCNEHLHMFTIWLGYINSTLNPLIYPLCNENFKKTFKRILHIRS

[13] = target: T2, muscarinic acetylcholine receptor M1 (Homo sapiens, UniProt P11229); test: Inhibition of human muscarinic receptor 1 at 1 uM relative to control
T2 sequence (P11229 whole entry): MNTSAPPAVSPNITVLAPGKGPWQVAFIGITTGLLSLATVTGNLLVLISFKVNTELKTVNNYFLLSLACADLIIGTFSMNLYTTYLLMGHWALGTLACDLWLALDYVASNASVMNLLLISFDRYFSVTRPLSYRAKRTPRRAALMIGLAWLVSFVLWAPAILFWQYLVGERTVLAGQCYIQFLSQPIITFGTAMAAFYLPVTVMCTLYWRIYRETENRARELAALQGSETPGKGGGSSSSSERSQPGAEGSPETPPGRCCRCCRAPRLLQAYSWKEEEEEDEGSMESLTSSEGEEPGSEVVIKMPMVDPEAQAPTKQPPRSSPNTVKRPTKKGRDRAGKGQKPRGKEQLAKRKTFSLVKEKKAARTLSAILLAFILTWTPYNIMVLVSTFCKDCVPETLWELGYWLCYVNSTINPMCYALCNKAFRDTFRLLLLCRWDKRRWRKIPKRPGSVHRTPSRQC

[14] = target: T1, 5-hydroxytryptamine receptor 1A; test: Antagonist activity at human 5HT1A expressed in HEK293 cells assessed as reduction in forskolin-induced stimulation of cAMP production incubated for 30 mins by LANCE ultra cAMP detection assay; format: cell-based; conditions: hek293, 0.5 h
hERG (KCNH2) = hERG (KCNH2) (Homo sapiens, UniProt Q12809); test: Inhibition of human ERG at 1 uM relative to control
Sequence of hERG (KCNH2) (Q12809 whole entry): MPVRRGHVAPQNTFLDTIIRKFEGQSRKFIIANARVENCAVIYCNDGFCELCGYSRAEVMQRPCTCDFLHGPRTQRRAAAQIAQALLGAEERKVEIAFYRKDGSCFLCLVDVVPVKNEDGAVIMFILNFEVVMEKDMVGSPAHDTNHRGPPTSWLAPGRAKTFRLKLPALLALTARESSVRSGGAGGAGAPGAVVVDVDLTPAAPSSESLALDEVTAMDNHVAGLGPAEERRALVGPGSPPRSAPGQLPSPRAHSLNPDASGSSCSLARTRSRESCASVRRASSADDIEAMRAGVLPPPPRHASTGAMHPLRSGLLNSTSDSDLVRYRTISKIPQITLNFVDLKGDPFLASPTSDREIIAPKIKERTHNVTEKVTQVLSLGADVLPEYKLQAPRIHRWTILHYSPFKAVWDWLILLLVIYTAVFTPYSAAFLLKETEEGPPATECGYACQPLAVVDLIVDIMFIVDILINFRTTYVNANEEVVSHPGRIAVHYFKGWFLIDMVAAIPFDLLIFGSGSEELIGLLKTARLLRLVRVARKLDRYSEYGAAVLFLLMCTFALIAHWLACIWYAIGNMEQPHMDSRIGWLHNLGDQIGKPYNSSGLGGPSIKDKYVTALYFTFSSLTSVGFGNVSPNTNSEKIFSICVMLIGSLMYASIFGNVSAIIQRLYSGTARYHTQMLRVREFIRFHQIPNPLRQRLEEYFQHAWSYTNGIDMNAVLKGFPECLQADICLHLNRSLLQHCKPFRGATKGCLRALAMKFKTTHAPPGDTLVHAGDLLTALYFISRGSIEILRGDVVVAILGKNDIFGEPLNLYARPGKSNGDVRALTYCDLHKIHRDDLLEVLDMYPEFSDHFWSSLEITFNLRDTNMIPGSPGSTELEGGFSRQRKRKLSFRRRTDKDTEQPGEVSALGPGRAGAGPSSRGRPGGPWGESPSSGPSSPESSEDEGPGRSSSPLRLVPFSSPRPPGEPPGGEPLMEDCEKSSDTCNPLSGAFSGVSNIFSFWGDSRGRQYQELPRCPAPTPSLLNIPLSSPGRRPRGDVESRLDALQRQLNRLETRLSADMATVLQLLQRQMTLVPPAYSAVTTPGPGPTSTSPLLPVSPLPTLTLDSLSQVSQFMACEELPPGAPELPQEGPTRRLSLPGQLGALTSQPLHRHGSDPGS

[15] = target: T3, alpha-1A adrenergic receptor (Homo sapiens, UniProt P35348); test: Inhibition of human alpha1A adrenergic receptor at 1 uM relative to control
T3 sequence (P35348 whole entry): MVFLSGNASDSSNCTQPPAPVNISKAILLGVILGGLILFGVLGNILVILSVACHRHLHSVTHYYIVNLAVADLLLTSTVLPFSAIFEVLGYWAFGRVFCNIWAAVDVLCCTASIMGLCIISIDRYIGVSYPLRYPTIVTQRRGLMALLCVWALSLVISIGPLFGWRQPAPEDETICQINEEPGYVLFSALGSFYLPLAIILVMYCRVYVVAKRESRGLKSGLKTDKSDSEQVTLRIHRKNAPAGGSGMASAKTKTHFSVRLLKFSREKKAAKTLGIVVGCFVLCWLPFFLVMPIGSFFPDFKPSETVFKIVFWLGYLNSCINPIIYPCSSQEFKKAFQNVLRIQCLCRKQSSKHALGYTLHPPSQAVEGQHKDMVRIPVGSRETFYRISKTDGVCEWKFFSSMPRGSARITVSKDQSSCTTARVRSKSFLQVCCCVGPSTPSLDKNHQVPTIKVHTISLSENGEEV

[16] = target: T1, 5-hydroxytryptamine receptor 1A; test: Agonist activity at human 5HT1A expressed in HEK293 cells assessed as stimulation of cAMP production incubated for 30 mins by LANCE ultra cAMP detection assay; format: cell-based
Astrocyte [17] = test: Glio-protective activity in mouse C8-D1A astrocytes assessed as reduction in 6-OHDA-induced toxicity at […] pre-incubated for 12 hrs before doxorubicin addition and measured after 24 hrs by LDH assay; format: functional, cell-based; conditions: dose 0.25 µM, time 36.0 hrs
Astrocyte [18] = test: Glio-protective activity in mouse C8-D1A astrocytes assessed as reduction in DOX-induced toxicity at […] pre-incubated for 5 hrs before doxorubicin addition and measured after 3 hrs by LDH release assay; format: functional, cell-based; conditions: dose 0.25 µM
Astrocyte [19] = test: Glio-protective activity in mouse C8-D1A astrocytes assessed as reduction in 6-OHDA-induced toxicity at […] pre-incubated for 12 hrs before doxorubicin addition and measured after 24 hrs by MTT assay; format: functional, cell-based; conditions: dose 0.25 µM, time 36.0 hrs
Astrocyte [20] = test: Glio-protective activity in mouse C8-D1A astrocytes assessed as reduction in DOX-induced toxicity at […] pre-incubated for 5 hrs before doxorubicin addition and measured after 3 hrs by MTT assay; format: functional, cell-based; conditions: dose 0.25 µM, time 8.0 hrs

Compound	Stabilty [1]	Stabilty [2]	also measured
O=S(=O)(c1ccccc1)n1cnc2c(N3CCNCC3)nccc21	Stable	Unstable	–
O=S(=O)(c1ccccc1)n1c(-c2ccccc2)nc2c(N3CCNCC3)nccc21	Stable	Unstable	–
O=S(=O)(c1cccc(F)c1)n1cnc2c(N3CCNCC3)nccc21	Stable	Unstable	–
COc1cccc(S(=O)(=O)n2c(-c3ccccc3)nc3c(N4CCNCC4)nccc32)c1	Stable	Unstable	–
O=S(=O)(c1cccc(F)c1)n1c(-c2ccccc2)nc2c(N3CCNCC3)nccc21	Stable	Unstable	–
CC(C)c1nc2c(N3CCNCC3)nccc2n1S(=O)(=O)c1ccccc1	Stable	Unstable	–
Cc1nc2c(N3CCNCC3)cccc2n1S(=O)(=O)c1ccccc1 [PF-05212377]	–	–	Ki [3]: 0.5 nM
O=S(=O)(c1ccccc1)c1cnc2c(N3CCNCC3)cccc2c1 [INTEPIRDINE]	Stable	–	Activity [4]: Non-Toxic; Activity [5]: 12.06 um; CC50 [6]: > 1000 nM
COc1cccc2c1C(=O)c1c(O)c3c(c(O)c1C2=O)C[C@@](O)(C(=O)CO)C[C@@H]3O[C@H]1C[C@H](N)[C@H](O)[C@H](C)O1 [DOXORUBICIN]	–	–	IC50 at 24 h [7]: 2300 nM
COc1cccc(S(=O)(=O)n2c(C(C)C)nc3c(N4CCNCC4)nccc32)c1	Stable	Unstable	Stabilty [8]: Stable
CC(C)c1nc2c(N3CCNCC3)nccc2n1S(=O)(=O)c1cccc(F)c1	Stable	Unstable	–
O=S(=O)(c1cccc(Cl)c1)n1cnc2c(N3CCNCC3)nccc21	Stable	Unstable	Ki [9]: 355 nM; Ki [10]: 285 nM
CCc1nc2c(N3CCNCC3)nccc2n1S(=O)(=O)c1cccc(F)c1	Stable	Unstable	Ki [9]: 264 nM; Ki [10]: 829 nM
COc1cccc(S(=O)(=O)n2cnc3c(N4CCNCC4)nccc32)c1	Stable	Unstable	–
CCc1nc2c(N3CCNCC3)nccc2n1S(=O)(=O)c1cccc(Cl)c1	Stable	Unstable	inhibition at 1 µM [11]: 10%; inhibition at 1 µM [12]: 6%; inhibition at 1 µM [13]: 4%; Ki [9]: 562 nM; Activity [14]: Not Active; inhibition at 1 µM (hERG (KCNH2)): 12%; inhibition at 1 µM [15]: 22%; EC50 [16]: > 20000 nM; Ki [10]: 146 nM
COc1ccc(NS(=O)(=O)c2ccc(I)cc2)cc1N1CCN(C)CC1	–	–	Activity (Astrocyte [17]): inactive; Activity [4]: Non-Toxic; Activity (Astrocyte [18]): inactive; Activity (Astrocyte [19]): inactive; CC50 [6]: > 1000 nM; Activity (Astrocyte [20]): inactive
O=S(=O)(c1cccc(Cl)c1)n1c(-c2ccccc2)nc2c(N3CCNCC3)nccc21	Stable	Unstable	Ki [9]: 410 nM; Ki [10]: 1090 nM
CC(C)c1nc2c(N3CCNCC3)nccc2n1S(=O)(=O)c1cccc(Cl)c1	Stable	Unstable	Ki [9]: 239 nM; Ki [10]: 307 nM
